Source: patent US7687237B2, “Method of identification and quantification of proteins, isoforms of the angiotensin I converting enzyme” (Universidade Federal de Sao Paulo - UNIFESP, priority 2002, dated 2010)
Each block holds one compound with its values, some of them ahead of it.

Experiments:
[1] = system: angiotensin I converting enzyme (ACE); experiment: ACE enzymatic activity (Hipuril-His-Leu substrate, Friedland and Silverstein method) in essential hypertensive patients after oral captopril; type: in vivo, human; conditions: captopril 50 to 150 mg orally
SHR rats = SHR rats treated with enalapril: blood pressure; type: in vivo, rat; conditions: isogenic hypertensive SHR rats treated with enalapril
[2] = system: enzyme of 63 kDa molecular weight which breaks the Phe8-Arg9 BK bond; conditions: enzyme contained in urine, described by Ryan et al 1978; cited from earlier work

- enzyme activity at the end of the studies ([1]; essential arterial hypertensive patients, end of the study (after 6 hours)): returning to the basal levels
Compound: C[C@H](CS)C(=O)N1CCC[C@H]1C(=O)O [captopril]
- inhibition on the enzyme activity ([1]; essential (light and/or mild) arterial hypertensive patients, one-day dose, between 1 and 2 hours after administration, Hipuril-His-Leu substrate): 50%

Compound: CCOC(=O)[C@H](CCc1ccccc1)N[C@@H](C)C(=O)N1CCC[C@H]1C(=O)O [enalapril]
- blood pressure of treated SHR rats (SHR rats): pressure under control

Compound: BPP9a
- inhibition of the 63 kDa urine enzyme [2]: not inhibited
